According to patent US20260042764A1, “COMPOSITIONS AND METHODS FOR INHIBITION OF KRAS” (TheRas, Inc., priority 2022, published 2026):
pIC50: −log10 of the molar value.

Experiments:
[1] = target: T1, Avi-KRAS WT (1-169) GppNHp/RAF1 RBD-3xFLAG (52-151) (Homo sapiens, UniProt P01116); experiment: Raf1-KRAS WT-GppNHP disruption HTRF assay (Biological Example 1); type: binding; conditions: KRAS WT, GppNHp-loaded; class symbols
T1 construct: Avi-KRAS WT (1-169)
In short: (§1)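 HTRF PPI disruption; buffer 50 mM Tris pH 7.5, 100 mM NaCl, 5 mM MgCl2, 0.1% BSA, 0.01% Tween, 10% DMSO. Protein mix 1 h RT shaking, reagent mix 1 h RT shaking. Data as % activity vs DMSO (100%).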

[2] = target: T2, Avi-KRAS G12R (1-169) GppNHp/RAF1 RBD-3xFLAG (52-151) (Homo sapiens, UniProt P01116, G12R); experiment: Raf1-KRAS G12R-GppNHP disruption HTRF assay (Biological Example 1); type: binding; conditions: KRAS G12R, GppNHp-loaded; class symbols
T2 construct: Avi-KRAS G12R (1-169)
In short: as §1

[3] = target: T3, Avi-KRAS G12V (1-169) GppNHp/RAF1 RBD-3xFLAG (52-151) (Homo sapiens, UniProt P01116, G12V); experiment: Raf1-KRAS G12V-GppNHP disruption HTRF assay (Biological Example 1); type: binding; conditions: KRAS G12V, GppNHp-loaded; class symbols
T3 construct: Avi-KRAS G12V (1-169)
In short: as §1

SW620 cells (KRAS G12V) = experiment: Cell-based pERK HTRF assay in SW620 cell (Biological Example 4); conditions: Homo sapiens, SW-620, SW620 (KRAS G12V) cells, pERK HTRF; class symbols
In short: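 In SW620 cells grown in RPMI with 10% FBS, a 4 h compound treatment (0.25% DMSO, 9-point curve from 1 μM) preceded lysis. Phospho-ERK levels were then read by time-resolved FRET at 615 nm emission.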

[4] = target: T4, Avi-KRAS G12D (1-169) GppNHp/RAF1 RBD-3xFLAG (52-151) (Homo sapiens, UniProt P01116, G12D); experiment: Raf1-KRAS G12D-GppNHP disruption HTRF assay (Biological Example 1); type: binding; conditions: KRAS G12D, GppNHp-loaded; class symbols
T4 construct: Avi-KRAS G12D (1-169)
In short: as §1

GP2d cells (KRAS G12D) = experiment: Cell-based pERK HTRF assay in GP2d cell (Biological Example 2); conditions: GP2d, GP2d (KRAS G12D) cells, pERK HTRF; class symbols
In short: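 Treatment with test compounds lasted one hour in DMEM containing 10% FBS, with DMSO held at 0.25%. Dilution series: 9 points, half-log spacing, highest 1 μM or 100 nM. Lysates were incubated 4–24 h at room temperature with antibody mix, then HTRF was read at 320 nm excitation.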

T1 sequence (P01116 1-169 isoform P01116-2): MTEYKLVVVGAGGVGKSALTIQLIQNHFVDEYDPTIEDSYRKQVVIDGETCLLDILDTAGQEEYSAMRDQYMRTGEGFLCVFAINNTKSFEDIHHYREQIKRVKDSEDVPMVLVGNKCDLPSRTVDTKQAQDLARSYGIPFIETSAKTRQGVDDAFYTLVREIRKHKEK
T3 sequence (P01116 1-169 isoform P01116-2 G12V): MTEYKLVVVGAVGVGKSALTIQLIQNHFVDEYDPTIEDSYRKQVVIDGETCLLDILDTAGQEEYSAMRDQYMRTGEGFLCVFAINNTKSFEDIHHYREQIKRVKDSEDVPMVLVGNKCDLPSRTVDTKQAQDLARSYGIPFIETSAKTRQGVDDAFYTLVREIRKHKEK
T4 sequence (P01116 1-169 isoform P01116-2 G12D): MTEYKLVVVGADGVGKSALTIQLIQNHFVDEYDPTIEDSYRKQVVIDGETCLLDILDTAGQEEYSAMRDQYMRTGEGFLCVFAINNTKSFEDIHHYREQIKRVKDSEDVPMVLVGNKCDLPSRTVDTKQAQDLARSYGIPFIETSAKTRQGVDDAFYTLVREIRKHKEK
T2 sequence (P01116 1-169 isoform P01116-2 G12R): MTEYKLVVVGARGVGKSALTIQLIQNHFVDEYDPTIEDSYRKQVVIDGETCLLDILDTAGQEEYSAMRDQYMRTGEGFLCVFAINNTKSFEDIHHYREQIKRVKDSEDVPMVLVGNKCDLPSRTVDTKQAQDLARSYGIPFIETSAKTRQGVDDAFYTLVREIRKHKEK

Compound	pIC50 [1]	pIC50 [2]	pIC50 [3]	pIC50 (SW620 cells (KRAS G12V))	pIC50 [4]	pIC50 (GP2d cells (KRAS G12D))
CCN(c1nc(OC[C@]23C[C@@H](F)CN2CC2(CC2)C3)nc2c(F)c(-c3ccc(F)c4sc(N)c(C#N)c34)c(C(F)(F)F)cc12)[C@H]1CCN(C(=O)C(C)C)C1 [Compound 566]	6.00 to 7.00	6.00 to 7.00	6.00 to 7.00	> 7.00	6.00 to 7.00	> 7.00
[2H]C1([2H])CN2C[C@H](F)C[C@]2(COc2nc(N3C[C@H]4C[C@@H]3CO4)c3cc(C(F)(F)F)c(-c4ccc(F)c5sc(N)c(C#N)c45)c(F)c3n2)C1 [Compound 567]	6.00 to 7.00	6.00 to 7.00	6.00 to 7.00	> 7.00	6.00 to 7.00	> 7.00
CC1c2cc(C(=O)N(C)C)nn2CCN1c1nc(OCC23CCCN2CC(F)C3)nc2c(F)c(-c3ccc(F)c4sc(N)c(C#N)c34)c(C(F)(F)F)cc12 (stereo not drawn) [Compound 568]	5.00 to 6.00	6.00 to 7.00	6.00 to 7.00	> 7.00	5.00 to 6.00	> 7.00
CCN(CC)C(=O)N1CCC(N(CC)c2nc(OCC34CCCN3CC(F)C4)nc3c(F)c(-c4ccc(F)c5sc(N)c(C#N)c45)c(C(F)(F)F)cc23)C1 (stereo not drawn) [Compound 572]	> 7.00	> 7.00	6.00 to 7.00	> 7.00	> 7.00	> 7.00
CCN(c1nc(OC[C@H]2C[C@@H](OC)CN2C)nc2c(F)c(-c3ccc(F)c4sc(N)c(C#N)c34)c(C(F)(F)F)cc12)[C@H]1CCN(C(=O)C(C)C)C1 [Compound 592]	5.00 to 6.00	5.00 to 6.00	5.00 to 6.00	6.00 to 7.00	5.00 to 6.00	> 7.00
C[C@@H]1[C@H](N(C)c2nc(OC[C@]34C[C@@H](F)CN3CC3(CC3)C4)nc3c(F)c(-c4ccc(F)c5sc(N)c(C#N)c45)c(Cl)cc23)CCN1C(=O)C1CC1 [Compound 593]	5.00 to 6.00	5.00 to 6.00	5.00 to 6.00	6.00 to 7.00	5.00 to 6.00	6.00 to 7.00
N#Cc1c(N)sc2c(F)ccc(-c3c(C(F)(F)F)cc4c(N5CC6CC(C5)O6)nc(OC[C@]56C[C@@H](F)CN5CC5(CC5)C6)nc4c3F)c12 [Compound 594]	5.00 to 6.00	5.00 to 6.00	5.00 to 6.00	> 7.00	5.00 to 6.00	> 7.00
N#Cc1c(N)sc2c(F)ccc(-c3c(C(F)(F)F)cc4c(N5C[C@H]6C[C@@H]5CO6)nc(OC[C@]56C[C@@H](F)CN5CC5(CC5)C6)nc4c3F)c12 [Compound 595]	5.00 to 6.00	5.00 to 6.00	5.00 to 6.00	> 7.00	5.00 to 6.00	> 7.00
CCN(c1nc(OC[C@@]23CCCN2C[C@H](F)C3)nc2c(F)c(-c3ccc(F)c4sc(N)c(C#N)c34)c(C(F)(F)F)cc12)[C@H]1CCN(C(=O)C2C[C@@H]2C)C1 (stereo partly drawn) [Compound 604]	> 7.00	> 7.00	> 7.00	> 7.00	> 7.00	> 7.00
N#Cc1c(N)sc2c(F)ccc(-c3c(C(F)(F)F)cc4c(N5CCn6nc(C(=O)N7CCC7)cc6C5)nc(OCC56CCCN5CC(F)C6)nc4c3F)c12 (stereo not drawn) [Compound 626]	6.00 to 7.00	6.00 to 7.00	6.00 to 7.00	> 7.00	6.00 to 7.00	> 7.00
N#Cc1c(N)sc2c(F)ccc(-c3c(C(F)(F)F)cc4c(N5CCn6nc(C(=O)N7CCCC7)cc6C5)nc(OCC56CCCN5CC(F)C6)nc4c3F)c12 (stereo not drawn) [Compound 627]	6.00 to 7.00	> 7.00	> 7.00	> 7.00	> 7.00	> 7.00
CCN(CC)C(=O)c1cc2n(n1)CCN(c1nc(OCC34CCCN3CC(F)C4)nc3c(F)c(-c4ccc(F)c5sc(N)c(C#N)c45)c(C(F)(F)F)cc13)C2 (stereo not drawn) [Compound 645]	6.00 to 7.00	6.00 to 7.00	6.00 to 7.00	> 7.00	6.00 to 7.00	> 7.00
CCN(c1nc(OC[C@@]23CCCN2C[C@H](F)C3)nc2c(F)c(-c3ccc(F)c4sc(N)c(C#N)c34)c(C(F)(F)F)cc12)[C@H]1CCN(C(=O)N2CC3CC(C2)O3)C1 [Compound 651]	> 7.00	> 7.00	> 7.00	> 7.00	> 7.00	> 7.00
CCN(c1nc(OC[C@@]23CCCN2C[C@H](F)C3)nc2c(F)c(-c3ccc(F)c4sc(N)c(C#N)c34)c(C(F)(F)F)cc12)C1CCN(C(=O)N2C3COCC2C3)C1 (stereo partly drawn) [Compound 652]	> 7.00	> 7.00	> 7.00	> 7.00	> 7.00	> 7.00
CCN(c1nc(OC[C@@]23CCCN2C[C@H](F)C3)nc2c(F)c(-c3ccc(F)c4sc(N)c(C#N)c34)c(C(F)(F)F)cc12)[C@H]1CCN(C(=O)N2CC3C(C2)C3(F)F)C1 (stereo partly drawn) [Compound 657]	> 7.00	> 7.00	> 7.00	> 7.00	> 7.00	> 7.00
CC#CC(=O)N1CC[C@@H](N(C)c2nc(OC[C@@]34CCCN3C[C@H](F)C4)nc3c(F)c(-c4ccc(F)c5sc(N)c(C#N)c45)c(C(F)(F)F)cc23)[C@H]1C [Compound 668]	6.00 to 7.00	6.00 to 7.00	6.00 to 7.00	> 7.00	6.00 to 7.00	> 7.00
C=C(F)C(=O)N1CC[C@@H](N(C)c2nc(OC[C@@]34CCCN3C[C@H](F)C4)nc3c(F)c(-c4ccc(F)c5sc(N)c(C#N)c45)c(C(F)(F)F)cc23)[C@H]1C [Compound 669]	6.00 to 7.00	6.00 to 7.00	6.00 to 7.00	> 7.00	6.00 to 7.00	> 7.00
C/C=C/C(=O)N1CC[C@@H](N(C)c2nc(OC[C@@]34CCCN3C[C@H](F)C4)nc3c(F)c(-c4ccc(F)c5sc(N)c(C#N)c45)c(C(F)(F)F)cc23)[C@H]1C [Compound 670]	6.00 to 7.00	6.00 to 7.00	6.00 to 7.00	> 7.00	6.00 to 7.00	> 7.00
C=C(C)C(=O)N1CC[C@@H](N(C)c2nc(OC[C@@]34CCCN3C[C@H](F)C4)nc3c(F)c(-c4ccc(F)c5sc(N)c(C#N)c45)c(C(F)(F)F)cc23)[C@H]1C [Compound 671]	6.00 to 7.00	6.00 to 7.00	6.00 to 7.00	6.00 to 7.00	6.00 to 7.00	> 7.00
C/C=C\C(=O)N1CC[C@@H](N(C)c2nc(OC[C@@]34CCCN3C[C@H](F)C4)nc3c(F)c(-c4ccc(F)c5sc(N)c(C#N)c45)c(C(F)(F)F)cc23)[C@H]1C [Compound 672]	6.00 to 7.00	6.00 to 7.00	6.00 to 7.00	> 7.00	6.00 to 7.00	> 7.00
